Source: the supplement of paper PMC10307832

Assays:
Experiment in all cases: relative viability (nuclei count vs DMSO), 5 days (fraction); higher = more cells survive
[1] = compound: CN(C)CC1=CC(=CC=C1)N=C(C2=CC=CC=C2)C3=C(NC4=C3C=CC(=C4)C(=O)N(C)C)O + CC1(C)CCC(c2ccc(Cl)cc2)=C(CN2CCN(c3ccc(C(=O)NS(=O)(=O)c4ccc(N[C@H](CCN5CCOCC5)CSc5ccccc5)c(S(=O)(=O)C(F)(F)F)c4)cc3)CC2)C1 [Navitoclax] (partner 0.5 µM)
Outline: (§1)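 Dosing by pin tool came one day after lung cancer cell lines were seeded in 1536-well plates, using either one drug or a fixed anchor-drug dose plus five library-drug doses (not always all listed) in √10 steps. After 5 days, nuclei were counted on 4× images. Relative viability is treated-well nuclei count divided by vehicle-well nuclei count, and values are medians of duplicate plates.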

[2] = compound: CN(C)CC1=CC(=CC=C1)N=C(C2=CC=CC=C2)C3=C(NC4=C3C=CC(=C4)C(=O)N(C)C)O + O=C(CCCCCCC(=O)Nc1ccccc1)NO [Vorinostat] (partner 1 µM)
Outline: as §1

[3] = compound: CN(C)CC1=CC(=CC=C1)N=C(C2=CC=CC=C2)C3=C(NC4=C3C=CC(=C4)C(=O)N(C)C)O + Cc1nc(Nc2ncc(C(=O)Nc3c(C)cccc3Cl)s2)cc(N2CCN(CCO)CC2)n1 [Dasatinib] (partner 0.075 µM)
Outline: as §1

[4] = compound: CN(C)CC1=CC(=CC=C1)N=C(C2=CC=CC=C2)C3=C(NC4=C3C=CC(=C4)C(=O)N(C)C)O + C[C@@H](Oc1cc(-c2cnn(C3CCNCC3)c2)cnc1N)c1c(Cl)ccc(F)c1Cl [Crizotinib] (partner 1 µM)
Outline: as §1

Row | Cell Line | relative viability ([1]; first compound 0.08 µM) | relative viability ([1]; first compound 0.253 µM) | relative viability ([1]; first compound 0.8 µM) | relative viability ([1]; first compound 2.53 µM) | relative viability ([1]; first compound 8 µM) | relative viability ([2]; first compound 0.08 µM) | relative viability ([2]; first compound 0.253 µM) | relative viability ([2]; first compound 0.8 µM) | relative viability ([2]; first compound 2.53 µM) | relative viability ([2]; first compound 8 µM) | relative viability ([3]; first compound 0.08 µM) | relative viability ([3]; first compound 0.253 µM) | relative viability ([3]; first compound 0.8 µM) | relative viability ([3]; first compound 2.53 µM) | relative viability ([3]; first compound 8 µM) | relative viability ([4]; first compound 0.08 µM) | relative viability ([4]; first compound 0.253 µM) | relative viability ([4]; first compound 0.8 µM) | relative viability ([4]; first compound 2.53 µM) | relative viability ([4]; first compound 8 µM)
1 | NCI-H1355 | 1.01 | 0.87 | 0.836 | 0.93 | 0.866 | 0.633 | 0.688 | 0.558 | 0.608 | 0.576 | 0.776 | 0.776 | 0.538 | 0.82 | 0.737 | 1.1 | 1.05 | 1.06 | 1.03 | 1.06
2 | NCI-H1651 | 1.11 | 1.11 | 1.13 | 1.11 | 0.934 | 0.558 | 0.547 | 0.573 | 0.599 | 0.593 | 0.414 | 0.459 | 0.443 | 0.284 | 0.386 | 0.884 | 0.844 | 0.873 | 0.835 | 0.822
3 | HCC-78 | 0.894 | 0.734 | 0.807 | 0.75 | 0.769 | 0.455 | 0.668 | 0.379 | 0.464 | 0.427 | 0.329 | 0.521 | 0.353 | 0.366 | 0.405 | 0.327 | 0.282 | 0.297 | 0.34 | 0.372
4 | RERF-LC-KJ | 1.06 | 0.645 | 0.833 | 1.03 | 0.866 | 0.744 | 0.703 | 0.605 | 0.64 | 0.681 | 0.931 | 0.831 | 0.876 | 0.749 | 0.793 | 0.855 | 0.771 | 0.707 | 0.887 | 0.754
5 | LC-2-ad | 0.456 | 0.515 | 0.429 | 0.515 | 0.338 | 0.694 | 0.699 | 0.727 | 0.681 | 0.622 | 0.697 | 0.593 | 0.751 | 0.409 | 0.44 | 0.406 | 0.402 | 0.486 | 0.4 | 0.441
6 | SK-MES-1 | 1.25 | 1.26 | 1.09 | 1.15 | 1.1 | 1.13 | 1.08 | 1.08 | 1.01 | 1.03 | 0.438 | 0.349 | 0.25 | 0.388 | 0.311 | 0.946 | 1.03 | 0.956 | 0.883 | 0.939
7 | NCI-H1734 | 0.821 | 0.836 | 0.889 | 0.844 | 0.644 | 0.909 | 0.829 | 0.828 | 0.86 | 0.66 | 0.473 | 0.46 | 0.441 | 0.394 | 0.39 | 0.7 | 0.651 | 0.597 | 0.667 | 0.557
8 | HOP-62 | 1.05 | 0.94 | 1.03 | 1.04 | 0.977 | 0.624 | 0.659 | 0.643 | 0.7 | 0.46 | 0.618 | 0.703 | 0.65 | 0.571 | 0.579 | 0.927 | 0.907 | 1.09 | 1.06 | 0.882
